# US12648965B2, “Use of bovine spleen peptide powder in improving sleep, preventing or treating depression, or improving intestinal function” (BEIJING NO. 1 BIO-TECHNOLOGY DEVELOPMENT CO., LTD., priority 2022, dated 2026)
# What was measured:
# [1] = tested on: zebrafish model of insomnia established by PTZ; assay: Evaluation of the efficacy in improving sleep, PTZ zebrafish model of insomnia; format: in vivo; settings: 125 μg/mL, 24 h, n = 10
# Excerpt: In the present application, a state in which zebrafish is in a speed of movement of greater than 20 mm/s is considered to be an awake state, a state in which the speed of movement is less than 4 mm/s is considered to be a sleep state, and a state in which the speed of movement is 4-20 mm/s corresponds to sleep latency.
# As used herein, the term “amount of wake after sleep onset” refers to the distance of movements during which the speed of movement is greater than 20 mm/s.
# As used herein, the term “time of wake after sleep onset” refers to the time of movements during which the speed of movement is greater than 20 mm/s.
# The 5 dpf wild type zebrafish of line AB were randomly selected and placed in a 6-well plate, and for the experimental groups 30 zebrafish were treated in each well. The positive control melatonin was in a concentration of 125 μg/mL. Meanwhile, the normal control group (fed in a conventional manner) and the model control group (i.e., the zebrafish model of insomnia established by PTZ) were set, with a capacity of 3 mL per well. […] The zebrafish were analyzed for amount of wake after sleep onset and time of wake after sleep onset. The bovine spleen peptide powder was evaluated for its efficacy in sleep improvement through statistical analysis results of the above indicators. The statistical results were expressed as “mean±standard deviation”.
# [2] = tested on: zebrafish model of gastrointestinal mucosal injury (TNBS); assay: Evaluation of regulatory efficacy on intestinal goblet cells, TNBS zebrafish model; format: in vivo; settings: 15.0 μg/mL, 2 days after TNBS, n = 10
# Protocol: The 3 dpf wild type zebrafish of line AB were randomly selected and placed in a 6-well plate, and for the experimental groups 30 zebrafish were treated in each well. Except for the normal control group (fed in a conventional manner), all the other experimental groups were given aqueous TNBS to establish a zebrafish model of gastrointestinal mucosal injury. After a 2-day treatment at 28° C., TNBS was removed, and the bovine spleen peptide powder dissolved in water was given at a concentration as shown in Table 9 below. The positive control prednisone was at a concentration of 15.0 μg/mL. Meanwhile, a normal control group and a model control group (i.e., a zebrafish model of gastrointestinal mucosal injury model established by TNBS) were set, with a capacity of 3 mL per well. After a further 2-day treatment at 28° C., 10 zebrafish from each experimental group were randomly selected and placed under the dissecting microscope for photographing. Data were acquired by the NIS-Elements D 3.20 advanced image processing software. The number of goblet cells in the intestine of zebrafish was analyzed. Statistical results were used to evaluate the regulatory efficacy of the goblet cells in the intestine of the zebrafish. The statistical results were expressed as “mean±standard deviation”.
SMILES,Amount of wake after sleep onset (mean ± standard deviation) [1] [mm],Time of wake after sleep onset (mean ± standard deviation) [1] [s],Number of intestinal goblet cells (mean ± standard deviation) [2] [count]
"COc1ccc2[nH]cc(CCNC(C)=O)c2c1 [Melatonin, melatonin]",346 ± 35.3,8.18 ± 0.795,–
"C[C@]12C=CC(=O)C=C1CC[C@@H]1[C@@H]2C(=O)C[C@@]2(C)[C@H]1CC[C@]2(O)C(=O)CO [Prednisone, prednisone]",–,–,47.2 ± 1.89
